According to patent US5593984A, “Cephalosporin derivatives” (Yuhan Corporation, priority 1992, dated 1997):
Converted amounts (≈) assume the structure as drawn. Where two headings read alike, the source gives them in different places. Blank lines part the entries; values can stand above or below the compound they belong to.

What was measured:
B. subtilis ATCC 6633 = test: MIC by agar dilution, B. subtilis ATCC 6633; type: cell-based; conditions: Bacillus subtilis, ATCC6633, 17 h, read-out: Minimal Inhibitory Concentration (MIC)
Method in brief: (§1)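 Following inoculation at 10^6 CFU per ml onto agar containing two-fold compound dilutions, plates were incubated 17±1 hours at 35°-37° C.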

E. coli No. 29 = test: MIC by agar dilution, E. coli No. 29; type: cell-based; conditions: Escherichia coli, read-out: Minimal Inhibitory Concentration (MIC)
Method in brief: as §1

[1] = tested on: Ser. marcescens IFO 12648; test: MIC by agar dilution, Ser. marcescens IFO 12648; type: cell-based; conditions: Serratia marcescens, IFO12648, 17 h, read-out: Minimal Inhibitory Concentration (MIC)
Method in brief: as §1

Ent. aerogenes IFO 12979 = test: MIC by agar dilution, Ent. aerogenes IFO 12979; type: cell-based; conditions: Klebsiella aerogenes, IFO12979, 17 h, Mueller-Hinton agar, read-out: Minimal Inhibitory Concentration (MIC)
Method in brief: as §1

Prov. stuartii IFO 12930 = test: MIC by agar dilution, Prov. stuartii IFO 12930; type: cell-based; conditions: Providencia stuartii, IFO12930, 17 h, Mueller-Hinton agar, read-out: Minimal Inhibitory Concentration (MIC)
Method in brief: as §1

Ent. cloacae IFO 13535 = test: MIC by agar dilution, Ent. cloacae IFO 13535; type: cell-based; conditions: Enterobacter cloacae, IFO13535, 17 h, read-out: Minimal Inhibitory Concentration (MIC)
Method in brief: as §1

E. coli DY-1 = test: MIC by agar dilution, E. coli DY-1; type: cell-based; conditions: Escherichia coli, DY1, 17 h, read-out: Minimal Inhibitory Concentration (MIC)
Method in brief: as §1

Staph. aureus C-57 = test: MIC by agar dilution, Staph. aureus C-57; type: cell-based; conditions: Staphylococcus aureus, C57, 17 h, Mueller-Hinton agar, read-out: Minimal Inhibitory Concentration (MIC)
Method in brief: as §1

E. coli NIHJ JC-2 = test: MIC by agar dilution, E. coli NIHJ JC-2; type: cell-based; conditions: Escherichia coli, NIHJJC2, 17 h, read-out: Minimal Inhibitory Concentration (MIC)
Method in brief: as §1

P. vulgaris NCTC 8313 = test: MIC by agar dilution, P. vulgaris NCTC 8313; type: cell-based; conditions: Proteus vulgaris, NCTC8313, 17 h, read-out: Minimal Inhibitory Concentration (MIC)
Method in brief: as §1

Staph. aureus C-5113 = test: MIC by agar dilution, Staph. aureus C-5113; type: cell-based; conditions: Staphylococcus aureus, C5113, 17 h, Mueller-Hinton agar, read-out: Minimal Inhibitory Concentration (MIC)
Method in brief: as §1

[2] = tested on: Ps. aeruginosa ATCC 10145; test: MIC by agar dilution, Ps. aeruginosa ATCC 10145; type: cell-based; conditions: Pseudomonas aeruginosa, ATCC10145, 17 h, Mueller-Hinton agar, read-out: Minimal Inhibitory Concentration (MIC)
Method in brief: as §1

Staph. aureus Smith = test: MIC by agar dilution, Staph. aureus Smith; type: cell-based; conditions: Staphylococcus aureus, 17 h, Mueller-Hinton agar, read-out: Minimal Inhibitory Concentration (MIC)
Method in brief: as §1

Staph. aureus ATCC 6538P = test: MIC by agar dilution, Staph. aureus ATCC 6538P; type: cell-based; conditions: Staphylococcus aureus, ATCC6538P, 17 h, read-out: Minimal Inhibitory Concentration (MIC)
Method in brief: as §1

[3] = tested on: S. epidermidis ATCC 12228; test: MIC by agar dilution, S. epidermidis ATCC 12228; type: cell-based; conditions: Staphylococcus epidermidis, ATCC12228, 17 h, read-out: Minimal Inhibitory Concentration (MIC)
Method in brief: as §1

[4] = tested on: Gram-negative bacteria such as Pseudomonas aeruginosa; conditions: background art; cited from earlier work
M. morganii DY-1 = test: MIC by agar dilution, M. morganii DY-1; type: cell-based; conditions: Morganella morganii, DY1, 17 h, read-out: Minimal Inhibitory Concentration (MIC)
Method in brief: as §1

[5] = tested on: Ps. aeruginosa NCTC 10490; test: MIC by agar dilution, Ps. aeruginosa NCTC 10490; type: cell-based; conditions: Pseudomonas aeruginosa, NCTC10490, 17 h, Mueller-Hinton agar, read-out: Minimal Inhibitory Concentration (MIC)
Method in brief: as §1

Ps. aeruginosa DY-2 = test: MIC by agar dilution, Ps. aeruginosa DY-2; type: cell-based; conditions: Pseudomonas aeruginosa, DY2, 17 h, read-out: Minimal Inhibitory Concentration (MIC)
Method in brief: as §1

K. pneumoniae NCTC 9632 = test: MIC by agar dilution, K. pneumoniae NCTC 9632; type: cell-based; conditions: Klebsiella pneumoniae, NCTC9632, 17 h, read-out: Minimal Inhibitory Concentration (MIC)
Method in brief: as §1

Staph. aureus C-5216 = test: MIC by agar dilution, Staph. aureus C-5216; type: cell-based; conditions: Staphylococcus aureus, C5216, 17 h, Mueller-Hinton agar, read-out: Minimal Inhibitory Concentration (MIC)
Method in brief: as §1

[6] = tested on: Gram-positive bacteria, in particular, Staphylococcus species; conditions: background art; cited from earlier work

MIC (B. subtilis ATCC 6633; B. subtilis ATCC 6633, agar dilution, Mueller-Hinton agar): 0.1 µg/mL (≈ 0.22 µM)
MIC (E. coli No. 29; 17 h, E. coli No. 29, agar dilution, Mueller-Hinton agar): ≤ 0.006 µg/mL
MIC ([1]; Ser. marcescens IFO 12648, agar dilution, Mueller-Hinton agar): 0.05 µg/mL (≈ 0.11 µM)
MIC (Ent. aerogenes IFO 12979): 0.025 µg/mL (≈ 0.0549 µM)
MIC (Prov. stuartii IFO 12930): ≤ 0.006 µg/mL
MIC (Ent. cloacae IFO 13535; Ent. cloacae IFO 13535, agar dilution, Mueller-Hinton agar): 0.78 µg/mL (≈ 1.71 µM)
MIC (E. coli DY-1; E. coli DY-1, agar dilution, Mueller-Hinton agar): ≤ 0.006 µg/mL
MIC (Staph. aureus C-57): 100 µg/mL (≈ 220 µM)
MIC (E. coli NIHJ JC-2; E. coli NIHJ JC-2, agar dilution, Mueller-Hinton agar): 0.05 µg/mL (≈ 0.11 µM)
MIC (P. vulgaris NCTC 8313; P. vulgaris NCTC 8313, agar dilution, Mueller-Hinton agar): ≤ 0.006 µg/mL
MIC (Staph. aureus C-5113): 3.13 µg/mL (≈ 6.87 µM)
MIC [2]: 6.25 µg/mL (≈ 13.7 µM)
MIC (Staph. aureus Smith): 1.56 µg/mL (≈ 3.43 µM)
MIC (Staph. aureus ATCC 6538P; Staph. aureus ATCC 6538P, agar dilution, Mueller-Hinton agar): 0.78 µg/mL (≈ 1.71 µM)
MIC ([3]; S. epidermidis ATCC 12228, agar dilution, Mueller-Hinton agar): 0.1 µg/mL (≈ 0.22 µM)
MIC (M. morganii DY-1; M. morganii DY-1, agar dilution, Mueller-Hinton agar): 0.025 µg/mL (≈ 0.0549 µM)
MIC [5]: 0.78 µg/mL (≈ 1.71 µM)
MIC (Ps. aeruginosa DY-2; Ps. aeruginosa DY-2, agar dilution, Mueller-Hinton agar): 12.5 µg/mL (≈ 27.4 µM)
MIC (K. pneumoniae NCTC 9632; K. pneumoniae NCTC 9632, agar dilution, Mueller-Hinton agar): 0.025 µg/mL (≈ 0.0549 µM)
MIC (Staph. aureus C-5216): 1.56 µg/mL (≈ 3.43 µM)
SMILES: CO/N=C(\C(=O)N[C@@H]1C(=O)N2C(C(=O)O)=C(COC(C)=O)CS[C@H]12)c1csc(N)n1 [CTX, Cefotaxime, reference compound]
antibacterial activities against Gram-negative bacteria such as Pseudomonas aeruginosa [4]: less effective antibacterial activities
antibacterial activities against Gram-positive bacteria, in particular Staphylococcus species [6]: have antibacterial activities against Staphylococcus species

SMILES: CC(C)(O/N=C(\C(=O)N[C@@H]1C(=O)N2C(C(=O)[O-])=C(C[n+]3ccccc3)CS[C@H]12)c1csc(N)n1)C(=O)O [CAZ, Ceftazidime, reference compound]
MIC (B. subtilis ATCC 6633): 1.56 µg/mL (≈ 2.85 µM)
MIC (E. coli No. 29; NO.29, 17 h): 0.1 µg/mL (≈ 0.183 µM)
MIC [1]: 0.025 µg/mL (≈ 0.0457 µM)
MIC (Ent. aerogenes IFO 12979): 0.05 µg/mL (≈ 0.0915 µM)
MIC (Prov. stuartii IFO 12930): 0.025 µg/mL (≈ 0.0457 µM)
MIC (Ent. cloacae IFO 13535): 1.56 µg/mL (≈ 2.85 µM)
MIC (E. coli DY-1): 0.05 µg/mL (≈ 0.0915 µM)
MIC (Staph. aureus C-57): 100 µg/mL (≈ 183 µM)
MIC (E. coli NIHJ JC-2): 0.2 µg/mL (≈ 0.366 µM)
MIC (P. vulgaris NCTC 8313): 0.025 µg/mL (≈ 0.0457 µM)
MIC (Staph. aureus C-5113): 25 µg/mL (≈ 45.7 µM)
MIC [2]: 0.78 µg/mL (≈ 1.43 µM)
MIC (Staph. aureus Smith): 6.25 µg/mL (≈ 11.4 µM)
MIC (Staph. aureus ATCC 6538P): 1.56 µg/mL (≈ 2.85 µM)
MIC [3]: 0.78 µg/mL (≈ 1.43 µM)
antibacterial activities against Gram-negative bacteria such as Pseudomonas aeruginosa [4]: superior antibacterial activities
MIC (M. morganii DY-1): 0.1 µg/mL (≈ 0.183 µM)
MIC [5]: 0.1 µg/mL (≈ 0.183 µM)
MIC (Ps. aeruginosa DY-2): 1.56 µg/mL (≈ 2.85 µM)
MIC (K. pneumoniae NCTC 9632): 0.05 µg/mL (≈ 0.0915 µM)
MIC (Staph. aureus C-5216): 25 µg/mL (≈ 45.7 µM)
antibacterial activities against Gram-positive bacteria, in particular Staphylococcus species [6]: relatively inferior antibacterial activities
